Entries after “also recorded” stand apart in the source; their conditions may differ. No end group written: not given here.
What was measured:
[1] = test system: c-fos protein expression in brain regions; assay: i.c.v. secretin, immunocytochemical detection of Fos in rat brain; format: in vivo, Sprague-Dawley rats; settings: i.c.v. lateral ventricle, secretin vs PBS, perfused 3 hours after injection, region named in the value
Source text: The inventors obtained data in eight adult male Sprague-Dawley rats weighing 250-450 g. The rats were obtained from Hilltop Lab Animals, Inc. (Scottdale, Pa.). Under ketamine-xylazine anesthesia, using sterile techniques, a stainless steel guide cannula was stereotaxically inserted into the lateral ventricle of each rat. Each cannula was affixed in place with dental cement secured to the skull. To prevent clogging, a removable 27 gauge wire was inserted into the guide cannula. The placement of the cannula with reference to bregma was 1.4-mm lateral, 0.5-mm caudal, and a depth of 2.5 mm from the surface of the skull. The rats were allowed to recover for 4-5 days before the injections. During this time, both experimental and control rats were administered 0.01 ml/kg buprinorphine hydrochloride every 6 h to reduce pain. Injections were made in the lateral ventricle 5 mm from the surface of the skull, via a premeasured cannula attached by polyethylene tubing (PE20) to a 25 ILL Hamilton syringe containing either phosphate buffered saline (PBS) at pH 7.4 (n=4) or 10 ILg (n=1, pilot study) or 30 ILg (n=3) of secretin (Sigma, St. Louis, Mo.) dissolved in 5-10 ILL PBS. Secretin injections were performed between 11:00 A.M. and 1:00 P.M.
Three hours after the i.c.v. injection, rats were administered sodium pentobarbital and perfused transcardially with heparinized, physiological saline followed by a 4% solution of paraformaldehyde in sodium phosphate buffer, pH 7.4. Whole brains were removed and blocked. Identical procedures were followed in control (n=4) and experimental animals (n=4). Tissue blocks were postfixed for 2-3 h in individual glass vials containing 4% paraformaldehyde in 0.1 M phosphate buffer (PBS, pH 7.4) and cryoprotected overnight at 4° C. in a solution of 10% sucrose in 0.1 M PBS. Frozen sections were cut on a sliding microtome at 30 JLm in the transverse plane and every fourth section was processed immunocytochemically for c-fos protein. Tissues from control and experimental animals were processed simultaneously in the same solutions in order to control for potential variability in immunocytochemistry. All incubations were carried out in separate test wells on a Thomas rotator table. Tissues were collected in 0.1 M PBS (pH 7.4) in spot test wells and washed in Tris-buffered saline (TBS) between each step. Nonspecific binding sites were blocked by preincubating for 30 min in bovine serum albumin (BSA), diluted 1:30 in TBS. Thereafter, sections were incubated overnight in primary whole rabbit antiserum raised against Fos protein diluted 1:10,000 (Oncogene, Cambridge, Mass.). The antisera were diluted in TBS containing 0.1% BSA, to which 0.25% Triton X-100 was added to facilitate antibody penetration. […]

[2] = test system: c-fos protein expression in brain regions; assay: as above; format: in vivo, Sprague-Dawley rats; settings: secretin infusion into the fourth ventricle (Example 4)
[3] = test system: IL10-/- colitis, colon inflammation; assay: IL-10-/- mouse colitis (genetic IBD), hematoxylin/eosin gut histology; format: in vivo, C57B6 IL-10-/- mice; settings: I.P. infusion by Alzet pump, vs saline
Source text: An acquired IBD model was created by inducing Colitis in male Sprague-Dawley rats (n=10) with trinitrobenzene sulfonic acid (TNBS) enema. A genetic IBD model was also created using IL-10 mutant mice. IBD criteria was confirmed in both groups by analyzing numbers of lymphocytes and epithelial destruction, and concomitant cerebral metabolic activity patterns comparing regional induction of c-fos gene expression. Control rats (n=11) and control mice (n=5) were also maintained.
Both the acquired IBD (rat) and genetic IBD (mouse) groups were treated with a combined peptide therapy consisting of co-administration of secretin and oxytocin. The acquired IBD subjects were administered a combination of secretin and oxytocin (40 μg/100 μl i.v.×7-20 days two weeks after disease induction). The genetic IBD subjects were administered a combination of secretin and oxytocin (40 μg/100 μl i.v.×7-20 days at age 18 weeks).
Data were obtained in 21 adult male Sprague-Dawley rats weighing 250-450 g and in 14 C57B6 IL-10−/− mice. Rats were obtained from Hilltop Lab Animals, Inc. (Scottdale, Pa.) and housed at the New York State Psychiatric Institute Housing Facility. Mice were obtained from Jackson Laboratory (Bar Harbor, Me.) and housed at the Eye Institute Annex of Columbia University.
Sprague-Dawley rats (n=10) were anesthetized with ketamine and xylazine and administered a solution of trinitrobenzene sulfonic acid (TNBS). 0.5 ml of TNBS solution (100 μl TNBS 5% solution; 150 μl PBS; 250 μl 100% ethanol) […] was administered intrarectally (Dohi T, et al., '00). Control rats (n=11) were injected with phosphate buffered saline (PBS) solution alone. On days 0, 3 and 7, the TNBS enema was administered via a glass microsyringe equipped with a gastric intubation needle. The animals were treated at the following time intervals: […] after the TNBS treatment in the Sprague-Dawley rats and at 18 weeks of age in the IL-10−/− mice.
Animals were anesthetized with xylazine (7-10 mg/kg I.P.) and ketamine (60 mg/kg I.P.) prior to implantation of an Alzet pump (model #2002). […]

secretin (HSDGTFTSELSRLRDSARLQRLLQGLV; not fully specified; ends and bridges not checked; UniProt P63298 33-59, looked up) [twenty-seven amino acid peptide and an enterogastrone; commercially available as SecreFlo]
Fos immunoreactivity (c-fos expression) attenuated in brain regions [1]: attenuated Fos labeling; also recorded: attenuated c-fos expression of the parietal cortex | Fos immunoreactivity (c-fos expression) induced in brain regions [1]: c-fos induction in ependymal and subependymal nuclei lining the third ventricle; also recorded: most heavily concentrated along the medial bank of the prefrontal cortex, the orbitofrontal cortex, the anterior olfactory nucleus, and the piriform cortex; also recorded: Fos immunoreactivity in behavioral, endocrine, and autonomic areas; also recorded: activated the NTS and its projection fields in the reticular formation, diffuse projection systems and the mesolimbic network; also recorded: area postrema was also activated; also recorded: induced c-fos expression in the locus ceruleus (LC); also recorded: induced c-fos expression of ependymal (arrows) and subependymal cells lining the third ventricle (III); also recorded: induced c-fos expression of the piriform cortex | Fos immunoreactivity (c-fos expression) attenuated in brain regions ([1]; listed as Secretin): attenuated Fos immunoreactivity in the dorsal periaqueductal gray, the intralamanar thalamus, the medial parvicellular hypothalamus, which synthesizes corticotrophin releasing hormone, the motor cortex, and the somatosensory and association areas of the parietal cortex | Fos immunoreactivity (c-fos expression) induced in brain regions ([1]; listed as Secretin): altered numbers of Fos immunoreactive nuclei, mainly in visceral and limbic areas of the brain; also recorded: induced c-fos protein expression in the dorsal vagal complex, including the general afferent division of NTS and the dorsal motor nucleus; also recorded: Fos IR was concentrated throughout the area postrema and its subpostremal region of transition with the NTS and the commissural, medial parvicellular and periventricular subnuclei; also recorded: activated c-fos expression in cells in the intermediate reticular region of the lateral tegmental field; also recorded: induced c-fos expression in the locus ceruleus (FIG. 3), ventral periaqueductal gray, and the paraventricular thalamic nucleus; also recorded: the predominant labeling mapped to the paraventricular hypothalamic nucleus, mainly its periventricular region and magnocellular subdivision; also recorded: induced c-fos in the medial and central amygdala and the lateral septal complex | brain regions activated [2]: activated comparable brain regions; viscerothalamic and HPA stress axes, amygdala, and ependyma | colon inflammation / inflammatory infiltrates, hematoxylin and eosin histology [3]: partial resolution of colon inflammation | colon inflammation / inflammatory infiltrates, hematoxylin and eosin histology ([3]; listed as S): partial resolution of inflammation | colon inflammation / inflammatory infiltrates, hematoxylin and eosin histology ([3]; listed as Secretin): dramatic increase in inflammatory infiltrate
